Assay results as given in patent US10059722B2, “Cephalosporin derivatives and methods of use” (priority 2012, dated 2018).
Values after ≈ are worked out from the molar mass of the structure shown. “Also recorded” adds a separate entry of the source. Read-outs that look alike come from different tables or passages of the source.

Tests used:
Streptococcus = test: Antibiotic spectrum: Streptococcus; format: cell-based; conditions: Gram positive, replicating conditions, n=1 experiment; for MIC: Streptococcus, read-out: MIC against Streptococcus
[1] = system: non-replicating M. tuberculosis; test: microbe, parasite or virus in culture; format: cell-based, Mycobacterium tuberculosis; conditions: for MIC: Mycobacterium tuberculosis
[2] = system: replicating M. tuberculosis; test: MIC under replication (R) conditions; format: cell-based, Mycobacterium tuberculosis; conditions: for MIC: Mycobacterium tuberculosis
Pseudomonas aeruginosa = test: Antibiotic spectrum: Pseudomonas aeruginosa; format: cell-based; conditions: Gram negative, replicating conditions, n=1 experiment; for MIC: Pseudomonas aeruginosa, read-out: MIC against Pseudomonas aeruginosa
Escherichia coli = test: Antibiotic spectrum: Escherichia coli; format: cell-based; conditions: Gram negative, replicating conditions, n=1 experiment; for MIC: Escherichia coli, read-out: MIC against Escherichia coli
HepG2 cells = format: cell-based; conditions: human, 2 day
Protocol: Three lead compounds were identified in the first round of high throughput screening (700 compounds), which had minimal inhibitory concentrations (MIC) of 0.4-0.8 μg/mL after a six day exposure to drug (NRd6) in the model of non-replication at pH 5.0, and LD50's of 100 to >100 μg/mL against HepG2 cells (a 2 day exposure).
Furthermore, LD50 values were determined using a human hepatoma cell line (HepG2) using intracellular ATP levels as a measurement that correlated with cellular viability.

Staphylococcus aureus = test: Antibiotic spectrum: Staphylococcus aureus; format: cell-based; conditions: Gram positive, replicating conditions, n=1 experiment; for MIC: Staphylococcus aureus, read-out: MIC against Staphylococcus aureus
[3] = system: murine bone marrow-derived macrophages; test: Toxicity to macrophages by visual inspection; conditions: 100 μg/mL; visual inspection at 400× magnification
[4] = system: wild-type Mtb infecting murine bone marrow-derived macrophages; test: Killing of Mtb infecting bone marrow-derived macrophages (FIG. 2); format: cell-based, Mycobacterium tuberculosis; conditions: 100 μg/mL
Candida albicans = test: Activity against fungus Candida albicans; format: cell-based; conditions: pH 5.0
Protocol: In addition, activity was tested against the fungus Candida albicans at pH 5.0.

[5] = system: non-replicating wild-type Mycobacterium tuberculosis (Mtb); test: CFU-based cidal assay, non-replicating wild-type Mtb (FIG. 1); format: cell-based
[6] = 72 h, pH 5, Table 2, library samples (purity approximately 75%), read-out: MIC NR pH 5.0, day 3 exposure
[7] = 144 h, pH 5, Table 2, library samples (purity approximately 75%), read-out: MIC NR pH 5.0, day 6 exposure
[8] = pH 5, read-out: MIC NR pH 5, D3 exposure
[9] = pH 5, read-out: MIC NR pH 5, D6 exposure
[10] = read-out: MIC NR at 0.01 Inoc. and 3 Day Exposure to Drug, 7 Day Outgrowth, Table 8, ranges from multiple assays
[11] = read-out: MIC NR at 0.01 Inoc. and 3 Day Exposure to Drug, 11 Day Outgrowth, Table 8, ranges from multiple assays

SMILES	MIC against Streptococcus (Streptococcus) [µg/mL]	MIC (Streptococcus) [µg/mL]	MIC [1, 6] [µg/mL]	MIC [1, 7] [µg/mL]	MIC [1, 8] [µg/mL]	MIC [1, 9] [µg/mL]	MIC [1, 10] [µg/mL]	MIC [1, 11] [µg/mL]	MIC against Pseudomonas aeruginosa (Pseudomonas aeruginosa) [µg/mL]	MIC (Pseudomonas aeruginosa) [µg/mL]	MIC (Escherichia coli) [µg/mL]	MIC against Escherichia coli (Escherichia coli) [µg/mL]	HepG2 Toxicity LD50 (HepG2 cells)	HepG2 toxicity (HepG2 cells) [µg/mL]	MIC against Staphylococcus aureus (Staphylococcus aureus) [µg/mL]	MIC (Staphylococcus aureus) [µg/mL]	other results
CCCN[C@@H]1C(=O)N2C(C(=O)OCCC)=C(C)CS[C@H]12 [Compound 11c, (6R,7R)-propyl 3-methyl-8-oxo-7-(propylamino)-5-thia-1-azabicyclo[4.2.0]oct-2-ene-2-carboxylate]	>100	> 100	6.3 (≈ 21.1 µM)	1.6 (≈ 5.36 µM)	1.6 (≈ 5.36 µM)	0.4 (≈ 1.34 µM)	0.39 to 0.78 (≈ 1.31 to 2.61 µM)	0.78 (≈ 2.61 µM)	>100	> 100	> 100	>100	100−>100	>100	>100	> 100	selectivity index (LD50/MIC-NRd6) [1]: 129; MIC ([2]; pH 6.6, read-out: MIC pH 6.6, R cells): > 100 µg/mL
CCCOC(=O)C1=C(C)CS[C@@H]2[C@H](NC(=O)OCc3ccccc3)C(=O)N12 [Compound 13]	>100	> 100	6.3 (≈ 16.1 µM)	< 0.39	1.6 (≈ 4.1 µM)	0.8 (≈ 2.05 µM)	0.2 to 0.39 (≈ 0.512 to 0.999 µM)	0.39 to 0.78 (≈ 0.999 to 2 µM)	>100	> 100	> 100	>100	100 µg/mL	100	>100	> 100	toxicity to the macrophages [3]: no toxicity; killing of wild-type Mtb infecting macrophages [4]: kills; increased killing in IFNγ-activated BMDMs versus unactivated ([4]; +50 ng/mL IFNγ vs −IFNγ): approximately 0.5 log10; killing of intracellular Mtb, log10 reduction of CFU ([4]; activated macrophages, MOI 5, two independent experiments): ~1.5 log10; MIC ([2]; pH 6.6, Table 3, resynthesized to >95% purity, read-out: MIC pH 6.6, R cells): > 100 µg/mL; MIC against replicating Mtb in presence or absence of clavulanic acid ([2]; with vs without clavulanic acid): identical; MIC (Candida albicans): > 100 µg/mL; surviving Mtb (limit of detection) ([5]; 10 μg/mL, 7 days at 1% O2, OD580 0.01, 7H11-OADC agar): < 100 colony forming units; effect of clavulanate on killing of non-replicating Mtb ([5]; NR conditions, 7 days, presence or absence of clavulanate): clavulanate-independent; also recorded: not detected; cidality against non-replicating wild-type Mtb ([5]; starting inoculum 0.01): cidal activity; also recorded: significant cidality
